These results are taken from PubChem BioAssay (NCI).

Each structure is given as a SMILES string.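 These data come from cells grown in 96-well plates and exposed to compound for 48 hours at five concentrations. At the GI50, growth is halved. At the TGI there is no net growth.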

One may read the TGI as the concentration at which net growth stops. Lower therefore signals more potent growth arrest. The term GI50 denotes the concentration giving 50% growth inhibition.

Among the test systems are CCRF-CEM leukemia; SF-268 CNS; SF-295 CNS; RXF 393 renal; U251 CNS; UO-31 renal; OVCAR-3 ovarian; SK-MEL-28 melanoma; NCI-H522 lung; BT-549 breast.
Assay in all cases: DTP human tumour cell line panel, 48 h

Consider `CCCCCCCCCCC(C)CCCCCCC(=O)O` (stereo unspecified), for which the TGI in the experiment on CCRF-CEM leukemia, in the experiment with SF-268 CNS, with SF-295 CNS, in the experiment on RXF 393 renal, in the experiment on U251 CNS and in the experiment on UO-31 renal was more than 100 µM in each case. Besides, the total growth inhibition concentration (TGI) in the experiment with OVCAR-3 ovarian, with SK-MEL-28 melanoma and with NCI-H522 lung was more than 100 µM each time.

Consider `O=C(CC/C(CC(=O)c1ccc(Br)cc1)=N\O)Nc1ccc(Cl)c(Cl)c1`, for which the TGI in the experiment on CCRF-CEM leukemia was more than 100 µM; with SF-268 CNS, more than 100 µM; in the experiment on SF-295 CNS, more than 100 µM; in the experiment with RXF 393 renal it was 90.7 µM; in the experiment with U251 CNS, more than 100 µM; in the experiment on UO-31 renal, more than 100 µM. Besides, the TGI was more than 100 µM in the experiment on OVCAR-3 ovarian, more than 100 µM in the experiment on SK-MEL-28 melanoma and 53.5 µM in the experiment on NCI-H522 lung.

For the compound `N#CC1C=Cc2c(ccc3ccccc23)N1C(=O)c1ccccc1` (stereo unspecified), the concentration for 50% growth inhibition (GI50) in the experiment on CCRF-CEM leukemia is 0.149 µM; in the experiment with SF-268 CNS, 1.05 µM; with SF-295 CNS, 0.0268 µM; in the experiment with BT-549 breast, 2.29 µM; in the experiment with U251 CNS, 0.387 µM; in the experiment with UO-31 renal, 1.01 µM. Also, the figures for the GI50 in the experiment with OVCAR-3 ovarian, with SK-MEL-28 melanoma and in the experiment on NCI-H522 lung were 0.167 µM, 0.723 µM and 0.0274 µM, respectively. Also, the concentration for total growth inhibition (TGI) in the experiment on CCRF-CEM leukemia was more than 69.9 µM; in the experiment with SF-268 CNS, more than 100 µM; with SF-295 CNS it was 0.0747 µM; in the experiment on BT-549 breast, more than 60.1 µM; in the experiment on U251 CNS, more than 81.6 µM; in the experiment on UO-31 renal, more than 23.6 µM. Further, the TGI in the experiment on OVCAR-3 ovarian is 0.574 µM; in the experiment with SK-MEL-28 melanoma, more than 100 µM; with NCI-H522 lung, 0.0924 µM.

Turning to `CCC[CH2][Sn]1([CH2]CCC)[O]CC(C)[O]1` (stereo unspecified), the 50% growth inhibitory concentration (GI50) is 0.314 µM in the experiment with CCRF-CEM leukemia; 1.4 µM with SF-295 CNS; 1.46 µM with RXF 393 renal; 1.39 µM with U251 CNS; 1.54 µM in the experiment on UO-31 renal; 1.37 µM with OVCAR-3 ovarian. Also, the GI50 in the experiment on SK-MEL-28 melanoma was 2.24 µM; with NCI-H522 lung it was 0.306 µM. The concentration for total growth inhibition (TGI) in the experiment with CCRF-CEM leukemia was determined as 0.97 µM; with SF-295 CNS, 2.74 µM; in the experiment with RXF 393 renal it was 2.99 µM; in the experiment with U251 CNS, 2.72 µM; in the experiment on UO-31 renal, 3.1 µM; in the experiment on OVCAR-3 ovarian, 2.67 µM. Also, the TGI was 3.96 µM in the experiment with SK-MEL-28 melanoma and 1.07 µM in the experiment on NCI-H522 lung.

As to `Brc1cc2c(cc1Br)CN(c1ccccc1)C2`, the TGI in the experiment on CCRF-CEM leukemia, in the experiment on SF-268 CNS, with SF-295 CNS, in the experiment with RXF 393 renal, in the experiment on U251 CNS and in the experiment on UO-31 renal was more than 100 µM each time. Moreover, the concentration for total growth inhibition (TGI) in the experiment with OVCAR-3 ovarian and in the experiment with SK-MEL-28 melanoma was more than 100 µM throughout.

With `Cc1cccc2c(O)cc(=O)oc12`, the total growth inhibition concentration (TGI) in the experiment with CCRF-CEM leukemia, in the experiment with SF-268 CNS, in the experiment with SF-295 CNS, in the experiment with RXF 393 renal, in the experiment on U251 CNS and in the experiment with UO-31 renal was more than 100 µM throughout. The TGI in the experiment with OVCAR-3 ovarian and in the experiment on SK-MEL-28 melanoma was more than 100 µM in each case.

Consider `O=C(CCCCC(=O)N/N=C\c1ccccc1O)N/N=C\c1ccccc1O`, for which the GI50 in the experiment with CCRF-CEM leukemia was 1.29 µM; with SF-268 CNS, 1.72 µM; in the experiment with SF-295 CNS it was 1.98 µM; in the experiment with BT-549 breast it was 32 µM; in the experiment with RXF 393 renal, 3.76 µM; in the experiment with U251 CNS, 3.09 µM. Besides, the GI50 in the experiment on OVCAR-3 ovarian is 3.87 µM. In addition, the TGI with CCRF-CEM leukemia was more than 100 µM; in the experiment with SF-268 CNS it was more than 100 µM; with SF-295 CNS it was 6.55 µM; in the experiment on BT-549 breast it was more than 100 µM; with RXF 393 renal, more than 100 µM; in the experiment with U251 CNS it was more than 100 µM. Moreover, in the experiment on OVCAR-3 ovarian, the TGI was more than 100 µM.

Regarding `O=C1/C(=C/c2ccc(Br)cc2)CCC/C1=C\c1ccc(Br)cc1`, the TGI in the experiment on CCRF-CEM leukemia was 24.4 µM; with SF-268 CNS, more than 100 µM; in the experiment with RXF 393 renal, 18.9 µM; with U251 CNS, 20.5 µM; in the experiment on UO-31 renal, 24.7 µM; with OVCAR-3 ovarian, 15.9 µM. In addition, the TGI with SK-MEL-28 melanoma was found to be 14.1 µM; with NCI-H522 lung, 39.2 µM.

`Cc1ccc(C(=O)CC2=Nc3nnc(CCCCCCCc4nnc5n4C(=O)C(CC(=O)c4ccc(C)cc4)=N5)n3C2=O)cc1`: the TGI with CCRF-CEM leukemia, in the experiment on SF-268 CNS, with SF-295 CNS, with RXF 393 renal, in the experiment with U251 CNS and in the experiment on UO-31 renal was more than 100 µM each time. Further, the TGI in the experiment on OVCAR-3 ovarian, in the experiment with SK-MEL-28 melanoma and in the experiment with NCI-H522 lung was more than 100 µM in each case.

In the case of `COC(=O)c1nn(C(=N)c2ccc(Cl)cc2)c2c1CCC2`, the TGI in the experiment on CCRF-CEM leukemia, in the experiment on SF-268 CNS, in the experiment on SF-295 CNS, with RXF 393 renal, with U251 CNS and in the experiment with UO-31 renal was more than 100 µM throughout. The TGI with SK-MEL-28 melanoma and in the experiment on NCI-H522 lung was more than 100 µM each time.

Turning to `COc1cc(NC(=O)C2=C(N3CCOCC3)/C(=C/c3ccc(Cl)cc3)CC2)cc(OC)c1OC`, the GI50 is 20 µM with SF-268 CNS; 7.09 µM with SF-295 CNS; 25.5 µM in the experiment with BT-549 breast; 16.8 µM in the experiment with U251 CNS; 20.8 µM in the experiment on UO-31 renal; 24.9 µM in the experiment on OVCAR-3 ovarian. The results for the GI50 in the experiment on SK-MEL-28 melanoma and in the experiment with NCI-H522 lung were more than 100 µM and 17.2 µM, respectively. For the same compound, the total growth inhibition concentration (TGI) in the experiment on SF-268 CNS was more than 100 µM; in the experiment on SF-295 CNS it was 40.7 µM; in the experiment on BT-549 breast, more than 100 µM; in the experiment with U251 CNS it was 59.7 µM; with UO-31 renal, more than 100 µM; in the experiment with OVCAR-3 ovarian, more than 100 µM. The TGI in the experiment on SK-MEL-28 melanoma and in the experiment with NCI-H522 lung was more than 100 µM throughout.

With `CC(=O)[CH-]C(C)=O.CC(=O)[CH-]C(C)=O.CC[O-].CC[O-].[Ti+4]`, the GI50 with CCRF-CEM leukemia, with SF-268 CNS, with SF-295 CNS, with RXF 393 renal, in the experiment on U251 CNS and in the experiment with UO-31 renal was more than 100 µM throughout. The GI50 in the experiment with OVCAR-3 ovarian, with SK-MEL-28 melanoma and in the experiment on NCI-H522 lung was more than 100 µM in each case. In addition, the TGI in the experiment with CCRF-CEM leukemia, in the experiment with SF-268 CNS, in the experiment on SF-295 CNS, in the experiment on RXF 393 renal, with U251 CNS and with UO-31 renal was more than 100 µM throughout. In addition, the total growth inhibition concentration (TGI) in the experiment with OVCAR-3 ovarian, with SK-MEL-28 melanoma and in the experiment on NCI-H522 lung was more than 100 µM each time.
